Data: paper PMC10605010, “Immunotechniques for the Group Determination of Macrolide Antibiotics Traces in the Environment Using a Volume-Mediated Sensitivity Enhancement Strategy” (Biosensors, 2023)
In brackets after ≈: the same amount, converted by molar mass. Read-outs that look alike come from different tables or passages of the source.

Key:
[1] = tested on: anti-BSA-cmoCLA(ae) antibodies; test: Indirect competitive ELISA (icELISA), variants by coating antigen; format: binding, rabbit; details: for CR: CLA = 100
Description: In present work, we investigated and compared several new-designed and previously established coating antigens, which were adsorbed on the 96-well Costar plates from 0.1 to 3.0 µg/mL solutions in CBB (pH 9.6) overnight at 4 °C. […] Solutions of these analytes (1 pg/mL–1 μg/mL) were added to wells of the plate along with anti-cmoCLA antibody in PBS-T with 1%BSA and incubated for 1 h at 25 °C in plate-shaker ST-3 L (ELMI Ltd. laboratory equipment, Riga, Latvia). GAR-HRP was used to detect antigen-antibody formed complexes for 1 h at 37 °C. The activity of the bound enzyme was detected using TMB-substrate mixture, and the intensity of colored product was read at 450 nm using a LisaScan spectrophotometer (Erba Mannheim, Czech Republic). […] The relative antibody-binding absorbance (B/B0) was determined for each concentration of analyte and used to construct a calibration curve as B/B0 versus the concentration. Structurally related macrolides CLA, ESE, ROX, AZI, DIR, TUL, and OLE were analyzed for their cross-reactions. […] Assay sensitivity, limit of detection (LOD), and working range of the assay were set as values of IC50, IC10, and IC20-IC80 range, respectively.

[2] = tested on: coated anti-BSA-cmoCLA(ae) antibody; test: Direct competitive antibody-coated ELISA (dcELISA) with HRP-aecAZI tracer; format: binding, rabbit; details: 1 h
Description: To implement these assay formats, the IgG fraction was first isolated from antiserum via the double precipitation method using caprylic acid and ammonium sulfate, described in detail in [22]. The principle of the assays is based on competition between analyte and enzyme-labeled antigen (HRP-aecAZI) for binding to an antibody coated on the plate (dcELISA) or coupled covalently to Sepharose beads. The latter immunosorbent was used in the immunobeads assay (IBA) and immunofiltration assay (IFA).
dcELISA plate format. The direct competitive antibody-coated ELISA format was carried out in accordance with the generally accepted procedure. The antibody coated on polystyrene plates could capture the free analyte from the tested sample and enzyme-labeled hapten in a competitive manner. The sequence of manipulations corresponded to those described for a similar format earlier. The role of the volume ratios between the standard (25–275 µL) and HRP-aecAZI (25–175 µL) on the sensitivity of the assay was studied in this work.
As a result of interactions between antibody and a number of coating antigens, we have identified a preferred hapten and a rational antigen design for the most sensitive and broad-specific detection. Since the aecAZI hapten conjugated to the carrier via a zero-length arm yielded the desired assay performance, we prepared the same design enzyme-labeled hapten for the direct competitive assay format. […] Thus, a direct competitive assay format was optimized and established based on coated anti-BSA-cmoCLA(ae) antibody and HRP-aecAZI × 3 as a tracer.

[3] = tested on: anti-BSA-cmoCLA(ae) antibody; test: PrG-ELISA, self-assembly on coated protein G, direct competitive; format: binding, rabbit; details: 1.5 h, coating Ab 200 µL, standard/sample 250 µL
Description: (§1) Another important consideration was the enhancement of the functional activity of antibodies through their oriented immobilization on the surface of polystyrene and its potential impact on the method sensitivity. This was achieved by interacting the adsorbed protein G with the antibody Fc fragments, allowing the antibody-binding fragments to remain spatially accessible. This interaction could be implemented in a step-by-step manner or as a result of self-assembly (Figure 4A). The step-by-step procedure involved the initial formation of a complex between the coated protein G and the antibody (PrG-Ab), followed by a competitive assay step. An alternative self-assembly method implied the competitive interaction of antibody with an analyte (sample) and a tracer in the solution with simultaneous binding to the coated protein G (PrG).

[4] = tested on: anti-BSA-cmoCLA(ae) antibody; test: PrG-Ab-ELISA, step-by-step oriented antibody coating via protein G, direct competitive; format: binding, rabbit; details: 0.5 h, coating Ab 200 µL, standard/sample 250 µL
Description: as §1

[5] = tested on: antibody, immunogen Commercial; design: method as in doi:10.1007/s12161-015-0130-x; details: milk; cited from earlier work
[6] = tested on: antibody, immunogen Commercial; design: method as in PMID 26497839; details: milk; cited from earlier work
[7] = tested on: antibody to immunogen BSA-cmoCLA(ae); design: method as in doi:10.1039/C9QM00429G; details: milk; CLA = 100; cited from earlier work
[8] = tested on: antibody to immunogen BSA-cmoCLA(ae); design: method as in PMID 32693204; details: breast milk; CLA = 100; cited from earlier work
[9] = coating antigen OVA-aecAZI(dma)
[10] = coating Ab 100 µL, standard/sample 25 µL
[11] = coating Ab 100 µL, standard/sample 50 µL
[12] = coating Ab 100 µL, standard/sample 100 µL
[13] = coating Ab 100 µL, standard/sample 200 µL
[14] = coating Ab 100 µL, standard/sample 275 µL
[15] = coating Ab 200 µL, standard/sample 275 µL
[16] = coating Ab 300 µL, standard/sample 275 µL

`CC[C@H]1OC(=O)[C@H](C)[C@@H](O[C@H]2C[C@@](C)(OC)[C@@H](O)[C@H](C)O2)[C@H](C)[C@@H](O[C@@H]2O[C@H](C)C[C@H](N(C)C)[C@H]2O)[C@](C)(O)C[C@@H](C)C(=O)[C@H](C)[C@@H](O)[C@]1(C)O` [ERY, Erythromycin] gave an IC50 ([1]; coating antigen OVA(pi)-aecAZI) of 0.042 ng/mL (≈ 0.0572 nM), an LOD ([1]; coating antigen OVA(pi)-aecAZI, water) of 0.01 ng/mL and a CR ([1]; coating antigen OVA(pi)-aecAZI) of 105%. It also gave an IC50 [1, 9] of 0.223 ng/mL (≈ 0.304 nM), a CR [1, 9] of 70.4% and an IC50 ([1]; coating antigen OVA-aecAZI(ga)) of 0.049 ng/mL (≈ 0.0668 nM). It also gave a CR ([1]; coating antigen OVA-aecAZI(ga)) of 87.8%, an IC50 ([1]; coating antigen OVA-cmoERY(ae)) of 0.240 ng/mL (≈ 0.327 nM) and a CR ([1]; coating antigen OVA-cmoERY(ae)) of 71.7%. The “IC10 (LOD)” value [2, 10] was 0.04 ng/mL (≈ 0.0545 nM), the “IC20-IC80 (working range)” value [2, 10] was 0.097 to 0.907 ng/mL and the IC50 [2, 10] was 0.31 ng/mL (≈ 0.422 nM). For the same compound, the “IC10 (LOD)” value [2, 11] was 0.04 ng/mL (≈ 0.0545 nM), the “IC20-IC80 (working range)” value [2, 11] was 0.085 to 0.565 ng/mL and the IC50 [2, 11] was 0.23 ng/mL (≈ 0.313 nM). For the same compound, the “IC10 (LOD)” value [2, 12] was 0.008 ng/mL (≈ 0.0109 nM), the “IC20-IC80 (working range)” value [2, 12] was 0.037 to 0.400 ng/mL and the IC50 [2, 12] was 0.14 ng/mL (≈ 0.191 nM). For the same compound, the “IC10 (LOD)” value [2, 13] was 0.011 ng/mL (≈ 0.015 nM), the “IC20-IC80 (working range)” value [2, 13] was 0.029 to 0.253 ng/mL and the IC50 [2, 13] was 0.098 ng/mL (≈ 0.134 nM). For the same compound, the “IC10 (LOD)” value [2, 14] was 0.024 ng/mL (≈ 0.0327 nM), the “IC20-IC80 (working range)” value [2, 14] was 0.043 to 0.184 ng/mL and the IC50 [2, 14] was 0.091 ng/mL (≈ 0.124 nM). The “IC10 (LOD)” value [2, 15] was 0.002 ng/mL (≈ 0.00273 nM), the “IC20-IC80 (working range)” value [2, 15] was 0.008 to 0.119 ng/mL and the IC50 [2, 15] was 0.034 ng/mL (≈ 0.0463 nM). The “IC10 (LOD)” value [2, 16] was 0.006 ng/mL (≈ 0.00818 nM), the “IC20-IC80 (working range)” value [2, 16] was 0.012 to 0.119 ng/mL and the IC50 [2, 16] was 0.040 ng/mL (≈ 0.0545 nM). For the same compound, the “IC10 (LOD)” value [3] was 0.007 ng/mL (≈ 0.00954 nM), the “IC20-IC80 (working range)” value [3] was 0.015 to 0.199 ng/mL and the IC50 [3] was 0.055 ng/mL (≈ 0.0749 nM). For the same compound, the “IC10 (LOD)” value [4] was 0.002 ng/mL (≈ 0.00273 nM), the “IC20-IC80 (working range)” value [4] was 0.006 to 0.054 ng/mL and the IC50 [4] was 0.020 ng/mL (≈ 0.0273 nM). For the same compound, the CR [5] was 100%, the LOD [5] was “ni//5 ng/mL” and the CR [6] was 100%. For the same compound, the LOD [6] was “ni//0.13 ng/mL”, the CR [7] was 30.1% and the CR [8] was 7.5%.
